Experimental data as given in ChEMBL document CHEMBL1201862, “PubChem BioAssay data set” (2004).
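Following 48 hours of exposure in 96-well plates, responses at five concentrations were used to interpolate endpoints linearly. Abbreviation: GI50, concentration required for 50% inhibition of growth.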 Calls of active or inactive are those of the source. Rule as the data show it: active = GI50 up to about 1.1 µM and inactive = higher.

Tests used:
Experiment in all cases: DTP human tumour cell line panel, 48 h
DU-145 = system: DU-145
M14 = system: M14
SR = system: SR
SF-539 = system: SF-539
UO-31 = system: UO-31
786-0 = system: 786-0
PC-3 = system: PC-3
RPMI-8226 = system: RPMI-8226
Hs-578T = system: Hs-578T
HOP-62 = system: HOP-62
NCI-H522 = system: NCI-H522
T47D = system: T47D
MDA-MB-435 = system: MDA-MB-435
SK-MEL-2 = system: SK-MEL-2
OVCAR-3 = system: OVCAR-3
SNB-75 = system: SNB-75
MDA-MB-231 = system: MDA-MB-231
A498 = system: A498

SMILES | GI50 (DU-145) | GI50 (M14) | GI50 (SR) | GI50 (SF-539) | GI50 (UO-31) | GI50 (786-0) | GI50 (PC-3) | GI50 (RPMI-8226) | GI50 (Hs-578T) | GI50 (HOP-62) | GI50 (NCI-H522) | GI50 (T47D) | GI50 (MDA-MB-435) | GI50 (SK-MEL-2) | GI50 (OVCAR-3) | GI50 (SNB-75) | GI50 (MDA-MB-231) | GI50 (A498)
CCOC1CCC2C(CCC(/C=C/c3ccc(O)c4ncccc34)N2C)C1 (centres undefined) | 10.3 µM (inactive) | 15.4 µM (inactive) | 3.21 µM (inactive) | 3.67 µM (inactive) | 26.1 µM (inactive) | 6.44 µM (inactive) | 8.75 µM (inactive) | 25.4 µM (inactive) | 15.2 µM (inactive) | 8.71 µM (inactive) | 1.99 µM (inactive) | 9.86 µM (inactive) |  |  |  |  |  | 
COP(=O)(OC)C(N)CCSC (centres undefined) |  | > 100 µM (inactive) | > 100 µM (inactive) |  | > 100 µM (inactive) | > 100 µM (inactive) | > 100 µM (inactive) | > 100 µM (inactive) | > 100 µM (inactive) | > 100 µM (inactive) | > 100 µM (inactive) |  | > 100 µM (inactive) | > 100 µM (inactive) | > 100 µM (inactive) | > 100 µM (inactive) |  | 
COc1cccc(N/C(C)=C2/CCOC2=O)c1 | > 10 µM (inactive) | > 10 µM (inactive) | > 10 µM (inactive) | > 10 µM (inactive) | 8.15 µM (inactive) |  | > 10 µM (inactive) | > 10 µM (inactive) | > 10 µM (inactive) | > 10 µM (inactive) | > 10 µM (inactive) | > 10 µM (inactive) | > 10 µM (inactive) | > 10 µM (inactive) | > 10 µM (inactive) | > 10 µM (inactive) | 6.56 µM (inactive) | > 10 µM (inactive)
O=C1N=C(SC(SC2=NC(=O)C3(NN2)c2ccccc2-c2ccccc23)=C(SC2=NC(=O)C3(NN2)c2ccccc2-c2ccccc23)SC2=NC(=O)C3(NN2)c2ccccc2-c2ccccc23)NNC12c1ccccc1-c1ccccc12 | > 10 µM (inactive) | 8.71 µM (inactive) | 3.24 µM (inactive) | > 10 µM (inactive) | 3.18 µM (inactive) | 9.66 µM (inactive) | 4.62 µM (inactive) | 3.59 µM (inactive) | > 10 µM (inactive) | > 10 µM (inactive) | 4.54 µM (inactive) | 0.935 µM (active) | > 10 µM (inactive) |  |  | 7.96 µM (inactive) | 4.71 µM (inactive) | 
N=c1oc2c(Cl)cc(Cl)cc2cc1C(=O)Nc1ccccn1 | 72.4 µM (inactive) | 33.7 µM (inactive) | 23.1 µM (inactive) | 40.9 µM (inactive) | 59 µM (inactive) | 27.5 µM (inactive) | 52 µM (inactive) | 22.3 µM (inactive) | 20.5 µM (inactive) | 16.4 µM (inactive) |  | 74.8 µM (inactive) | 45.6 µM (inactive) | 42.7 µM (inactive) | 24.6 µM (inactive) | 14.3 µM (inactive) | 69.2 µM (inactive) | 40.1 µM (inactive)
CCCn1c(CN(Cc2nc3ccccc3n2CCC)Cc2nc3ccccc3n2CCC)nc2ccccc21 | 7.83 µM (inactive) | 2.46 µM (inactive) | 2.58 µM (inactive) | 4.2 µM (inactive) | 2.21 µM (inactive) |  | 3.31 µM (inactive) | 2.04 µM (inactive) | 25.6 µM (inactive) | 10.8 µM (inactive) | 4.63 µM (inactive) | 2.55 µM (inactive) | 3.27 µM (inactive) | 5.69 µM (inactive) | 3.37 µM (inactive) | 6.79 µM (inactive) | 2.04 µM (inactive) | 4.74 µM (inactive)
CC(=O)O[C@H]1C(=O)[C@@]2(C)[C@H]([C@H](OC(=O)c3cccc([N+](=O)[O-])c3)[C@]3(O)C[C@H](OC(=O)[C@H](O)[C@@H](NC(=O)c4ccccc4)c4ccccc4)C(C)=C1C3(C)C)[C@]1(OC(C)=O)CO[C@@H]1C[C@@H]2O | 0.0177 µM (active) | 0.00619 µM (active) | 0.00447 µM (active) | < 0.0025 µM (active) | 0.568 µM (active) | 0.0159 µM (active) | 0.0065 µM (active) | 0.00341 µM (active) | 0.00322 µM (active) | 0.0107 µM (active) | 0.00362 µM (active) |  | 0.00336 µM (active) | 0.0126 µM (active) | < 0.0025 µM (active) | 0.00759 µM (active) | 0.0122 µM (active) | 0.005 µM (active)
Cc1c(C#N)c2nnn(C)c(=O)n2c1-c1ccccc1 |  | > 100 µM (inactive) |  | > 100 µM (inactive) | 95.5 µM (inactive) |  | 54.5 µM (inactive) | 84.9 µM (inactive) |  | > 100 µM (inactive) |  |  | > 100 µM (inactive) | > 100 µM (inactive) | > 100 µM (inactive) | 23.6 µM (inactive) | > 100 µM (inactive) | 98.6 µM (inactive)
CC(=O)Nc1cc2c(cc1O)CC[C@@H]1[C@@H]2CC[C@]2(C)[C@@H](O)CC[C@@H]12 |  | 39.4 µM (inactive) | 20.8 µM (inactive) | 34.5 µM (inactive) | 21.5 µM (inactive) | 63 µM (inactive) | 35.5 µM (inactive) | 45.3 µM (inactive) | 74.1 µM (inactive) | 73.1 µM (inactive) | 20.8 µM (inactive) | 30.3 µM (inactive) | 19.7 µM (inactive) |  |  |  | 55 µM (inactive) | 24.1 µM (inactive)
